Assay results: PubChem BioAssay (NCI)
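The compound was tested at five concentrations on cells cultured in 96-well plates, with a 48-hour exposure period. The concentration for full growth arrest is given as TGI.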

Experiments:
Assay in all cases: NCI-60 cell line screen, 48 h
[1] = system: NCI/ADR-RES ovarian
[2] = system: U251 CNS
[3] = system: LOX IMVI melanoma
[4] = system: UACC-257 melanoma
[5] = system: UACC-62 melanoma
[6] = system: NCI-H226 lung
[7] = system: RPMI-8226 leukemia
[8] = system: PC-3 prostate
[9] = system: OVCAR-3 ovarian
[10] = system: SK-MEL-2 melanoma
[11] = system: EKVX NSCLC
[12] = system: SF-539 CNS
[13] = system: RXF 393 renal
[14] = system: COLO 205 colon
[15] = system: SN12C renal
[16] = system: ACHN renal
[17] = system: SNB-19 CNS
[18] = system: CCRF-CEM leukemia
[19] = system: MCF7 breast
[20] = system: SNB-75 CNS
[21] = system: HOP-92 NSCLC
[22] = system: OVCAR-8 ovarian
[23] = system: OVCAR-4 ovarian
[24] = system: M14 melanoma
[25] = system: SF-295 CNS
[26] = system: NCI-H23 lung
[27] = system: SK-MEL-5 melanoma
[28] = system: HT29 colon
[29] = system: CAKI-1 renal
[30] = system: OVCAR-5 ovarian
[31] = system: MDA-N
[32] = system: A498 renal
[33] = system: K-562 leukemia
[34] = system: SW-620 colon
[35] = system: T-47D breast
[36] = system: SR leukemia
[37] = system: SK-OV-3 ovarian
[38] = system: DU-145 prostate
[39] = system: BT-549 breast
[40] = system: MDA-MB-435
[41] = system: HOP-62 NSCLC
[42] = system: MOLT-4 leukemia
[43] = system: HCT-15 colon
[44] = system: KM12 colon
[45] = system: SK-MEL-28 melanoma
[46] = system: 786-0 renal
[47] = system: NCI-H460 lung
[48] = system: MDA-MB-231 breast
[49] = system: A549 NSCLC
[50] = system: HCT-116 colon
[51] = system: IGROV1 ovarian
[52] = system: TK-10 renal
[53] = system: HL-60(TB) leukemia
[54] = system: MALME-3M melanoma
[55] = system: UO-31 renal
[56] = system: NCI-H522 lung
[57] = system: SF-268 CNS
[58] = system: HCC-2998 colon

Measured: TGI

O=S(=O)(O)c1cc(N=Nc2cccc3ccccc23)c(O)c2ncccc12
65.7 µM: [36]
85.8 µM: [6]
69.4 µM: [47]
83.5 µM: [28]
not listed: [54] | [55] | [56] | [57] | [58]
> 100 µM: all other assays above

Cc1cc(S(=O)(=O)NC2=NCC(C)NN2)c(S)cc1Cl (stereo not given)
80.9 µM: [33]
47 µM: [56]
73 µM: [57]
90.4 µM: [36]
84.3 µM: [10]
69.2 µM: [54]
61.8 µM: [7]
37.7 µM: [3]
53.3 µM: [51]
69.8 µM: [32]
not listed: [21]
> 100 µM: all other assays above

COc1ccc2c(C)cc(C)nc2n1
not listed: [6] | [12] | [57]
> 100 µM: all other assays above
